According to patent publication US8501715B2, “Oxidized lipids and uses thereof in the treatment of inflammatory diseases and disorders” (Vascular Biogenics Ltd., priority 2003, dated 2013):
Entries after “also recorded” stand apart in the source; their conditions may differ. Where two headings read alike, the source gives them in different places.

What was measured:
Apo-E KO mice = assay: Assessment of atherosclerosis: lesion area in the aortic sinus; assay type: in vivo, mouse
IL-10 [1] = assay: RT-PCR cytokine expression in the aorta: IL-10; assay type: in vivo, mouse
Protocol: (§1) The effect of ALLE, CI-201, its corresponding acetal derivatives Et-acetal and Me-acetal (Compounds IIa and IIb, FIG. 10) and oxLDL on cytokine expression in the target organ—the aorta—was evaluated using RT-PCR as described hereinabove. […] Oral administrations took place 5 times every other day.

IFN-γ [2] = assay: RT-PCR cytokine expression in the aorta: IFN-γ; assay type: in vivo; conditions: oral 1 mg/mouse 5 times every other day, 8 weeks after final administration
Protocol: as §1

IL-12 = assay: RT-PCR cytokine expression in the aorta: IL-12; assay type: in vivo; conditions: oral 1 mg/mouse 5 times every other day, 8 weeks after final administration
Protocol: as §1

Serum Amyloide A (SAA) = assay: Inflammatory markers in serum (ELISA): SAA; assay type: in vivo; conditions: oral 0.1 μg/mouse 5 times every other day; day 0, 2 and 4 weeks; control group dramatically increased
Protocol: (§2) Inflammatory Markers Evaluation in Serum: Serum was separated by centrifuge and stored at −70° C. Analysis of inflammatory markers was performed by ELISA (IL-10; R&D and SAA; BIOSOURCE).
(§3) Thus, Apo-E KO mice were orally administered with 0.1 μg/mouse CI-201 or 0.2 ml/mouse PBS, 5 times every other day. Mice serum was collected before treatment (day 0), at the end of the treatment (two weeks) and two weeks thereafter (4 weeks) and the level of the inflammation markers IL-10 and Serum Amyloide A (SAA) were evaluated.

Lewis rats = assay: Adjuvant-induced arthritis (AIA) in Lewis rats; assay type: in vivo, rat
IL12p40 [3] = assay: p40 production by activated BMDC's (ELISA); assay type: cell-based, mouse
IL-10 [4] = conditions: oral 0.1 μg/mouse 5 times every other day
Protocol: as §2, §3

IL-10 and IFN-γ = conditions: oral 1 mg/dose 5 times every other day
Protocol: The effects of CI-201 treatment on cytokine expression in the targeted organ—the aorta, as well as in the spleen, liver, kidneys and small intestine were evaluated using RT-PCR as described hereinabove. Apo-E KO mice were orally administered with 1 mg/dose CI-201 or with 0.2 ml/mouse PBS, 5 times every other day. The expression of the anti-inflammatory cytokine IL-10 and the pro-inflammatory cytokine IFN-γ were determined 8 weeks after final oral administration.

IFN-γ [5] = conditions: in vivo oral treatment (0.1 μg/feed C57BL/6, ovalbumin; 10 and 100 μg/mouse/feed SJL, PLP 139-151); ex vivo restimulation
Protocol: (FIG. 26a) C57BL/6 mice were fed in alternate days from day −10 to day +10 with CI-201 (0.1 μg/feed) of PBS. On day 0, mice were immunized with ovalbumin in CFA. On day 10, draining lymph nodes were excised and cells stimulated with ovalbumin. Cells were expanded for a week and then re-stimulated for 4 hours with plate bound anti-CD3 and anti-CD28 (5 μg/ml) in the presence of monensin (2 μM) and tested for cytokine expression by intracellular staining. Results are gated on CD4+ T cells. […] Lymph nodes were collected 10 days later, stimulated ex vivo with 10 μg/ml of PLP 139-151 peptide or 0.5 μg/ml of anti CD3 and three days later supernatants were collected and tested by ELISA for cytokine production.
Lymph nodes were collected 10 days later, stimulated ex vivo with 10 μg/ml of PLP 139-151 peptide or 0.5 μg/ml of anti CD3 and three days later cytokine production from the supernatant was measured using the Duoset ELISA kit (R&D systems, Minneapolis, Minn.).
Ex-vivo ELISA and Intracellular staining: For intracellular staining, C57BL/6 were orally administered with CI-201 (0.1 μg/mouse/feed) or PBS as control, 5 times, once every other day. Dosing volume was 0.2 ml. Subsequently, mice were immunized subcutaneously in two flanks with 200 μl of emulsion containing 200 μg of ovalbumin and MT (100 μg). […]

TNF-α [6] = conditions: BMDC's, activators other than PolyI:C
Protocol: Isolation of bone-marrow derived dendritic cells (BMDC's): Bone-marrow was flushed out with cold RPMI-1640 from mice femur and tibia. […] Cells were then washed, resuspended in the same buffer, and depleted from B and T cells on a Midi-Macs separation unit through a LD or LS column (Miltenyi biotech). The depleted cells were then counted, washed and seeded (10^6/ml) in medium containing RPMI-1640, L-glutamine, β-mercaptoethanol, 10% FCS, antibiotics (Penicillin, Streptomycin) and 20 ng/ml of mouse GM-CSF (Peprotech, Rehovot, Israel). Medium was replaced every other day and cells were used for subsequent experiments on days 5-6 post culturing.
(§4) Cytokine analysis: For the detection of cytokine production, supernatants from BMDC's and Mo-DC's following a 24 hour treatment were tested with Duoset ELISA kits for mouse IL12p40, TNF-α, IL-6 and human IL12p40 and TNF-α (R&D systems, Minneapolis, Minn.) respectively.

IL-6 = conditions: BMDC's, PGN activation
Protocol: BMDC's were incubated for 1 hour with different CI-201 concentrations prior to activation with 10 μg/ml of PGN. Supernatant were collected 24 hours following activation and the levels of IL-6 (FIG. 3M) and IL-1 (FIG. 3N) were measured.
as §4

IL-1 = conditions: BMDC's, PGN activation
Protocol: Supernatant were collected 24 hours following activation and the levels of IL-6 (FIG. 3M) and IL-1 (FIG. 3N) were measured.
Isolation of bone-marrow derived dendritic cells (BMDC's): Bone-marrow was flushed out with cold RPMI-1640 from mice femur and tibia. A cell suspension was prepared and erythrocytes were removed using red blood cell (RBC) lysis buffer (Beit Haemek, Israel). […] Cells were then washed, resuspended in the same buffer, and depleted from B and T cells on a Midi-Macs separation unit through a LD or LS column (Miltenyi biotech). The depleted cells were then counted, washed and seeded (10^6/ml) in medium containing RPMI-1640, L-glutamine, β-mercaptoethanol, 10% FCS, antibiotics (Penicillin, Streptomycin) and 20 ng/ml of mouse GM-CSF (Peprotech, Rehovot, Israel). Medium was replaced every other day and cells were used for subsequent experiments on days 5-6 post culturing.

IL-23p19 = conditions: CD11c+ BMDC's, CI-201 20 μg/ml, PGN 10 μg/ml
CD11c+BMDC's = conditions: 3 hours PGN 10 μg/ml with CI-201 20 μg/ml
Protocol: Gene Chip analysis: Mouse BMDC's were enriched for CD11c+DC (>90%) with mouse CD11c microbeads from 5-6 days cultures over MS or LS columns (Miltenyi biotech). […] RNA was prepared and used to generate cRNA. Preparation of cRNA, hybridization and scanning was done in the Weizmann Institute of Science (Rehovot, Israel) on the mouse genome 430A 2.0 array (Affymetrix, Santa Clara, Calif.).

IL12p40 [7] = conditions: human Mo-DC's, PGN 10 μg/ml, 24 hours
Protocol: (§5) Supernatants were collected 24 hours following activation and the levels of p40 (FIG. 30a) and TNF-α (FIG. 30b) were measured by ELISA.
(§6) Isolation of human monocyte derived dendritic cells (Mo-DC's): PBMCs were isolated from heparinized whole blood from healthy donors by Ficoll-Paque (Amersham, Uppsala, Sweden). Cells were incubated at 4° C. for 15 minutes in buffer containing PBS, 0.5% bovine serum albumin (BSA) and 2 mM EDTA with human CD14 microbeads (Miltenyi biotech) washed and positively selected on a Midi-Macs separation unit through LS column. The resulting cells were counted washed and seeded (10^6/ml) in medium containing RPMI-1640, L-glutamine, 3-mercaptoethanol, 10% FCS, antibiotics (Penicillin, Streptomycin), non essential amino acids, sodium pyruvate, 40 ng/ml of human GM-CSF and 20 ng/ml of human IL-4 (R&D systems, Minneapolis, Minn.). Medium was replaced every other day and cells were used for subsequent experiments on days 5-6 post culturing. Cell purity was >75% as determined by FACS for CD11c.
as §4

TNF-α [8] = conditions: human Mo-DC's, PGN 10 μg/ml, 24 hours
Protocol: as §5, §6, §4

p40 [9] = conditions: PBMC's from two donors, IFN-γ over-night, PGN 24 hours; all tested concentrations
Protocol: (§7) PBMC's from healthy donors were incubated over-night with IFN-γ and then activated with PGN in the presence of CI-201 for another 24 hours. Supernatants were then evaluated for p40 and TNF-α production.

TNF-α [10] = conditions: IFN-γ, PGN
Protocol: as §7

p40 [11] = conditions: splenic CD11b cells, IFN-γ over night, PGN 24 hours
Protocol: (§8) Isolation of Monocytes/Macrophages: Spleens were removed and a cell suspension was prepared. Erythrocytes were depleted using red blood cell (RBC) lysis buffer (Beit Haemek, Israel). Cells were washed in phosphate buffer saline (PBS) (Beit Haemek, Israel), and incubated in 4° C. for 15 min in buffer containing PBS and 0.5% bovine serum albumin (BSA) with mouse CD11b microbeads (Miltenyi biotech, Bergisch Gladbach, Germany). Cells were then washed, resuspended in the same buffer and positively selected on a Mini-Macs separation unit through a MS column (Miltenyi biotech).
(§9) In order to assess CI-201 effect on p40 production by macrophages, splenic CD11b cells were incubated over night with IFN-γ and then activated for 24 hours with PGN in the presence CI-201.

TNF-α [12] = conditions: splenic CD11b cells, IFN-γ over night, PGN 24 hours
Protocol: as §8, §9

IL-12p35 = assay: Q-PCR RNA expression in CD11c+ BMDC's: IL-12p35; conditions: CI-201 20 μg/ml, PGN 10 μg/ml
IL-27p28 = assay: Q-PCR RNA expression in CD11c+ BMDC's: IL-27p28; conditions: CI-201 20 μg/ml, PGN 10 μg/ml
IL-12/IL-23p40 = assay: Q-PCR RNA expression in CD11c+ BMDC's: IL-12/IL-23p40; conditions: CI-201 20 μg/ml, PGN 10 μg/ml, first 6 hours following activation, normalized to GAPDH

## CCCCCCCCCCCCCCCCOC[C@H](COP(=O)([O-])OCC[N+](C)(C)C)OCCCCC(=O)O [CI-201, 1-Hexadecyl-2-(5′-Carboxy-butyl)-sn-glycero-3-phosphocholine]
Apo-E KO mice; oral 0.1 μg/dose, 3 monthly sets of 5 administrations, 12 weeks after first feeding, 26-28 weeks old mice
  Aortic Sinus Lesion: 228,000±25,772 μm^2
Apo-E KO mice; oral 0.1 μg/dose, P<0.05
  decrease in atherosclerotic lesion in the aortic sinus as compared with the PBS treated group: 92%
Apo-E KO mice; oral 1 μg/dose, 3 monthly sets of 5 administrations, 12 weeks after first feeding, 26-28 weeks old mice
  Aortic Sinus Lesion: 295,729 ± 20,909 μm^2
Apo-E KO mice; oral 10 μg/dose, 3 monthly sets of 5 administrations, 12 weeks after first feeding, 26-28 weeks old mice
  Aortic Sinus Lesion: 272,483 ± 20,505 μm^2
Apo-E KO mice; oral 0.025 mg/dose, 8 weeks, P=0.051
  decrease of the aortic sinus lesion versus PBS control: 33%
Apo-E KO mice; oral 0.1, 1 or 10 μg/dose tested
  most effective dose for inhibiting disease progression: 0.1 μg/dose
Apo-E KO mice; oral 0.1, 1 or 10 μg/dose, 3 monthly sets
  disease progression (lesion area versus base line group): completely inhibited disease progression; also recorded: inhibited the disease progression
Apo-E KO mice; oral administration
  atherogenesis in Apo-E KO mice, oral administration (summary of earlier examples): substantially inhibited atherogenesis
Apo-E KO mice; oral gavage 0.025 mg/dose every day (5 times a week) for 8 weeks, male 12 weeks old mice
  Aortic Sinus Lesion: 125,192±19,824 μm^2
IL-10 [1]; oral 0.025 mg/dose, 8 weeks
  IL-10 expression in the aorta, higher than control group: 40%
IL-10 [1]; oral 1 mg/mouse 5 times every other day, 8 weeks after final administration
  IL-10 expression in the aorta versus PBS: elevated levels
IFN-γ [2]
  IFN-γ expression in the aorta versus PBS: reduced expression level
IL-12
  IL-12 expression in the aorta versus PBS: reduced levels
Serum Amyloide A (SAA)
  SAA serum levels: no alterations
Lewis rats; continuous treatment, high dose: 5 feedings before induction, then 3 times a week for about 30 days
  arthritis development (paw swelling, arthritis score, percentage of rats with symptoms): substantially attenuated arthritis development
Lewis rats; oral pre-treatment 4.0 mg/kg 5 times every other day before AIA induction
  paw swelling versus PBS-pretreated rats: significant decrease
Lewis rats; oral pre-treatment with the higher dose (4 mg/kg) before AIA induction
  mobility: close to that of normal rats
IL12p40 [3]; BMDC's, 1 hour pre-incubation, activation with PGN (TLR 2/6) 10 μg/ml, 24 hours
  p40 production: significant and dose dependent reduction
IL12p40 [3]; BMDC's, CpG (TLR9) engagement, only 20 μg/ml of CI-201
  p40 secretion: significantly inhibit
IL12p40 [3]; BMDC's, Fc-CD40L activation 1 μg/ml
  p40 secretion: significant reduction
IL12p40 [3]; BMDC's, PolyI:C (TLR3) activation 25 μg/ml
  p40 production: significant and dose dependent p40 inhibition
IL12p40 [3]; BMDC's, activation with LPS (TLR4) 100 ng/ml, intermediated concentrations of CI-201
  p40 levels: significant, but small reduction
IL12p40 [3]; BMDC's, activation with Pam3CSK4 (TLR1/2) 300 ng/ml, 24 hours
  p40 production: significant p40 inhibition
IL12p40 [3]; activated DC's in vitro
  concentration giving maximal inhibition of p40 production (highest concentration used): 20 µg/mL
IL-10 [4]; 2 weeks after end of treatment (4 weeks)
  IL-10 serum level: decay
IL-10 [4]; end of the treatment (2 weeks)
  IL-10 serum level: substantial increase
IL-10 and IFN-γ; 8 weeks after final administration
  cytokine expression in the spleen and in the small intestine versus PBS: no differences
IL-10 and IFN-γ; data not shown
  cytokine expression in the liver and in kidney: No change
IFN-γ [5]
  IFN-γ production by CD4+ T cells: reduced IFN-γ production
TNF-α [6]
  production of TNF-α: did not impair
IL-6
  production of IL-6: did not impair
IL-1
  production of IL-1: did not impair
IL-23p19
  RNA expression level of p19: substantial inhibition
CD11c+BMDC's
  p19 expression (gene chip): reduced p19 expression
  p40 RNA expression (gene chip): reduced RNA expression
IL12p40 [7]
  p40 production: can inhibit p40 production
TNF-α [8]
  ability to produce TNF-α: without altering
p40 [9]
  p40 production: close to complete inhibition
TNF-α [10]; PBMC's from donor I
  TNF-α production: did not impair
TNF-α [10]; PBMC's from donor II
  TNF-α levels: modest reduction
p40 [11]
  p40 production levels versus control cells: no major differences
TNF-α [12]
  TNF-α production levels versus control cells: no major differences
IL-12p35
  RNA expression level of p35: did not modify
IL-27p28
  RNA expression level of p28: did not modify
IL-12/IL-23p40
  p40 RNA expression, inhibition compared to control: more than two folds
